# In US5658885A, “Amidino and guanidino substituted boronic acid inhibitors of trypsin-like enzymes” (The DuPont Merck Pharmaceutical Company, priority 1994, dated 1997):
# pKi: −log10 of the molar value.
# Tests used:
# chymotrypsin = chymotrypsin (Bos taurus, UniProt P00766); details: Matteson et al. J. Am. Chem. Soc. 103: 5241 (1981); cited from earlier work
# thrombin clotting times [1] = assay: Thrombin clotting time, concentration for 2-fold increase; assay type: biochemical; details: 2-fold increase of thrombin clotting time
# human thrombin = target: T1, human thrombin (Homo sapiens, UniProt P00734); assay: Inhibition of thrombin hydrolysis of chromogenic substrate S2238 (Ki); assay type: biochemical; details: S2238, pH 7.5
# T1 construct: 0.2-0.5 nM human thrombin or human factor Xa; purchased Enzyme Research Laboratories, South Bend, Ind
# How it was run: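 Purified human enzymes hydrolysing pNA substrates (thrombin S2238, factor Xa S2222, factor VIIa S2288), followed by absorbance at 405 nm over 30 min with velocities taken at 25-30 min. Thrombin and Xa were run in 0.10 M phosphate pH 7.5, 0.20 M NaCl, 0.5% PEG 8000. VIIa was run in 0.05 M Tris pH 7.6, 0.10 M NaCl, 4 mM CaCl2, 0.1% BSA, with Ki calculated from inhibited versus control velocities using substrate concentration and Km.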
# human factor VIIa = target: T2, human factor VIIa (Homo sapiens, UniProt P08709); assay: Inhibition of Factor VIIa hydrolysis of chromogenic substrate S2288 (Ki); assay type: biochemical; details: S2288, pH 7.6
# T2 construct: 50 nM human factor VIIa (BiosPacific, Emeryville, Calif.); purchased BiosPacific, Emeryville, Calif
# T2 sequence (P08709 213-466 limits assumed): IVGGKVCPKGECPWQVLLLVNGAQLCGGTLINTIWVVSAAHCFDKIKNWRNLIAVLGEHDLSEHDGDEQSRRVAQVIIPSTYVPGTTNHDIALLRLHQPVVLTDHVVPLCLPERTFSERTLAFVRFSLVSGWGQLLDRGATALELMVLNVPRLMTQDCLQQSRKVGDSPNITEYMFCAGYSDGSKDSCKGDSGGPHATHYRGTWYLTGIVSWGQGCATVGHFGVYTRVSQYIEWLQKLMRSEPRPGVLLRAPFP
# T2 sequence (P08709 61-212 limits assumed): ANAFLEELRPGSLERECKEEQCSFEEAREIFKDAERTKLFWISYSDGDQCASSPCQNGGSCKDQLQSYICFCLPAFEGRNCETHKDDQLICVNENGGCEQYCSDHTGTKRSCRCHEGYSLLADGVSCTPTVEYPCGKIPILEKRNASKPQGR
# Method: (§1) The effectiveness of compounds of the present invention as inhibitors of blood coagulation proteases was determined using purified human proteases and synthetic substrates following procedures similar to those described in Kettner et al. (1990).
# (§2) For these assays, the rate of enzymatic (thrombin, Factor Xa, and Factor VIIa) hydrolysis of chromogenic substrates (S2238 (H-D-Phe-Pip-Arg-pNA), S2222, and S2288, respectively; Kabi Pharmacia, Franklin, Ohio) was measured both in the absence and presence of compounds of the present invention. […] A decrease in the rate of absorbance change at 405 nm in the presence of inhibitor is indicative of enzyme inhibition. The results of this assay are expressed as inhibitory constant, Ki.
# (§3) Thrombin and Xa determinations were made in 0.10M sodium phosphate buffer, pH 7.5, containing 0.20M NaCl, and 0.5% PEG 8000. VIIa determinations were made in 0.05M tris buffer, pH 7.6, containing 0.10M NaCl, 4 mM CaCl2, and 0.1% bovine serum albumin.
# (§4) Reactions were allowed to go for 30 minutes and the velocities (rate of absorbance change vs time) were measured in the time frame of 25-30 minutes. The following relationship was used to calculate Ki values. [formula] where: vo is the velocity of the control in the absence of inhibitor;
# (§5) vs is the velocity in the presence of inhibitor;
# (§6) I is the concentration of inhibitor;
# (§7) Ki is the dissociation constant of the enzyme: inhibitor complex;
# (§8) S is the concentration of substrate;
# (§9) Km is the Michaelis constant.
# human factor Xa = target: T3, human factor Xa (Homo sapiens, UniProt P00742); assay: Inhibition of Factor Xa hydrolysis of chromogenic substrate S2222 (Ki); assay type: biochemical; details: S2222, pH 7.5
# T3 construct: 0.2-0.5 nM human thrombin or human factor Xa; purchased Enzyme Research Laboratories, South Bend, Ind
# Method: as §1, §2, §3, §4, §5, §6, §7, §8, §9
# thrombin clotting times [2] = assay: Anticoagulant effect in vivo: identical model, activity measured by increases in thrombin clotting times; parameters: species or system conscious dogs or anesthetized rats; details: oral administration
# [3] = test system: activated partial thromboplastin time; assay: Anticoagulant effect in vivo: prolongation of activated partial thromboplastin time of blood samples after dosing; parameters: species or system conscious dogs or anesthetized rats; details: 0.5 to 10 mg/kg, dogs or rats
# Method: Arterial or venous blood was withdrawn by syringe and mixed with 1/10 volume 3.2% sodium citrate. Plasma was obtained after centrifugation and a standard clinical activated partial thromboplastin time (APTT reagent, Sigma Chemical Co., St. Louis, Mo.) determined at 37° C. in a fibrometer.
# T3 sequence (P00742 235-488 limits assumed): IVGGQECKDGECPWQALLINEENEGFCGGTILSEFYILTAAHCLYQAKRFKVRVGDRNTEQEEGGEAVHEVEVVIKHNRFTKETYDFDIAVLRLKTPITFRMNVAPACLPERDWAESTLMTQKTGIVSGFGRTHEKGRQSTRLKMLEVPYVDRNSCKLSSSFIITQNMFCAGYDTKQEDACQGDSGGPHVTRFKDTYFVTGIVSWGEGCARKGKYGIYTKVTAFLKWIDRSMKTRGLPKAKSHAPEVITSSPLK
# T3 sequence (P00742 41-179 limits assumed): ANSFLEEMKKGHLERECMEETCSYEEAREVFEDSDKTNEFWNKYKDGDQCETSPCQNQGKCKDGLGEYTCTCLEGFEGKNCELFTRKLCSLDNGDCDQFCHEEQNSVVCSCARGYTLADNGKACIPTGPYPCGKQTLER
pKi (human thrombin),pKi (human factor VIIa),pKi (human factor Xa),Molecule,concentration that increased thrombin clotting times 2-fold (thrombin clotting times [1]) [µM],also measured
> 6.30,> 6.30,> 4.30,"CC(=O)NC(Cc1ccccc1)C(=O)N1CCCC1C(=O)NC(Cc1cccc(C#N)c1)B1OC2CC3CC(C3(C)C)C2(C)O1 (stereo not shown) [Example 11, Ac--(D)Phe--Pro--boroPhe--(m-CN)--C10 H16]",0.60,–
> 6.30,–,–,"CC(=O)NC(Cc1ccccc1)C(=O)N1CCCC1C(=O)NC(Cc1cccc(C(=N)N)c1)B1OC2CC3CC(C3(C)C)C2(C)O1.O=S(=O)(O)c1ccccc1 (stereo not shown) [Example 12, Ac--(D)Phe--Pro--boroPhe--(m-C(NH)NH2)--C10 H16.BSA]",0.85,–
> 6.30,–,–,Ac--(D)Phe--Pro--boroArg(CH3)--OH.HCl [Example 54],–,elevation in anticoagulant activity measured by increases in thrombin clotting times (thrombin clotting times [2]): ≥ 2 fold
> 6.30,–,> 6.30,Ms--(D)Thiazolylalanine-Pro--boroPhe(m-CN)--C10 H16 [Example 31],–,elevation in anticoagulant activity measured by increases in thrombin clotting times (thrombin clotting times [2]): ≥ 2 fold

# More lines, now with the values behind:
Molecule,pKi (human thrombin),pKi (human factor VIIa),pKi (human factor Xa),concentration that increased thrombin clotting times 2-fold (thrombin clotting times [1]) [µM],also measured
"CC(=O)N[C@@H](Cc1ccccc1)B(O)O [Ac-boroPhe--OH, R-1-acetamido-2-phenylethane boronic acid]",–,–,–,–,pKi (chymotrypsin): 5.40
"CC(=O)NC(Cc1ccccc1)C(=O)N1CCCC1C(=O)NC(CCCNC=N)B1OC2CC3CC(C3(C)C)C2(C)O1.Cl (stereo not shown) [Example 3, Ac--(D)Phe--Pro--boroOrn(CH=NH)]--C10 H16.HCl]",> 6.30,–,–,0.25,–
Ac--(D)Phe--Pro--boroOrn(CH=NH)]--OH.HCl [Example 4],> 6.30,> 6.30,> 6.30,–,anticoagulant response (at least doubling of activated partial thromboplastin time vs. pre-dose) ([3]; i.v. dosing): effective; anticoagulant response (at least doubling of activated partial thromboplastin time vs. pre-dose) ([3]; oral dosing): effective
Boc--(D)Phe--Pro--boroOrn(CH=NH)]--OH.0.6 HCl.0.4 BSA [Example 7],> 6.30,> 6.30,> 6.30,< 0.075,–
H--(D)Phe--Pro--boroOrn(CH=NH)]--OH.0.65 HCl.0.35 BSA [Example 9],> 6.30,–,–,0.10,–
